Test results published in PubChem BioAssay (NCI).
Where “and” joins values, the source holds several entries; their conditions need not be identical. Equal entries are not always repeated.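 Method: 48-hour compound exposure of cells in 96-well plates, five concentrations, linear interpolation of endpoints. GI50: concentration for 50% inhibition of growth. TGI: total growth inhibition.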

Experiments:
Experiment in all cases: NCI-60 cell line screen, 48 h
BT-549 breast = system: BT-549 breast
RXF 393 renal = system: RXF 393 renal
NCI-H460 lung = system: NCI-H460 lung
NCI-H226 lung = system: NCI-H226 lung
CCRF-CEM leukemia = system: CCRF-CEM leukemia
OVCAR-8 ovarian = system: OVCAR-8 ovarian
SNB-19 CNS = system: SNB-19 CNS
HL-60(TB) leukemia = system: HL-60(TB) leukemia

Row | Structure (SMILES) | GI50 (BT-549 breast) | TGI (BT-549 breast) | GI50 (RXF 393 renal) | TGI (RXF 393 renal) | GI50 (NCI-H460 lung) | TGI (NCI-H460 lung) | GI50 (NCI-H226 lung) | TGI (NCI-H226 lung) | GI50 (CCRF-CEM leukemia) | TGI (CCRF-CEM leukemia) | GI50 (OVCAR-8 ovarian) | TGI (OVCAR-8 ovarian) | GI50 (SNB-19 CNS) | TGI (SNB-19 CNS) | GI50 (HL-60(TB) leukemia) | TGI (HL-60(TB) leukemia)
1 | CCN(CC)CCNc1cc(-c2cccc(OC(F)(F)F)c2)nc2ccc(N3CCCC3)cc12 | 1.6 µM and 1.83 µM and 1.85 µM | 3.11 µM and 3.47 µM and 3.57 µM | 1.51 µM and 1.5 µM and 1.7 µM | 3.03 µM and 3.09 µM and 4.02 µM | 1.62 µM and 1.7 µM | 3.27 µM and 3.47 µM | 2.08 µM and 1.76 µM and 2.79 µM | 4.26 µM and 3.45 µM and 8.02 µM | 1.57 µM and 2.19 µM and 2.8 µM | 4.2 µM and 6.84 µM and 10.4 µM | 1.94 µM and 1.76 µM and 1.99 µM | 4.04 µM and 3.36 µM and 4.24 µM | 1.75 µM and 1.84 µM and 1.98 µM | 3.4 µM and 3.31 µM and 3.8 µM | 1.66 µM and 0.714 µM and 2 µM | 3.65 µM and 3.01 µM and 4.12 µM
2 | O=C(NN=C1CCCCC1)c1[nH]c2ccc(F)cc2c1-c1ccccc1 | 57.4 µM | > 100 µM | 98.5 µM | > 100 µM | 22 µM | 50.8 µM | 49.1 µM | > 100 µM | 17.7 µM | > 100 µM | 51.4 µM | > 100 µM | 47.3 µM | > 100 µM | 18.2 µM | 52.7 µM
3 | Cc1cn2c(/C=N/N=C(N)N)c(-c3cccnc3)nc2s1 | 12.8 µM | 30.9 µM | 15.2 µM | 59.1 µM | 14.7 µM | 76.6 µM | 10.1 µM | 29.4 µM | 4.38 µM | 55 µM | 27.4 µM | 69 µM | 12.7 µM | 28.9 µM | 3.8 µM | 53.8 µM
4 | CCOC(=O)C(C)(C)C(O)C(C)C (configuration not stated) |  | > 100 µM |  | > 100 µM |  | > 100 µM |  |  |  | > 100 µM |  | > 100 µM |  | > 100 µM |  | > 100 µM
5 | CCc1ccc2c(c1)N(CCO)C1=C(C(=O)OC1)C2c1cccc(Cl)c1 (configuration not stated) | 1.98 µM | 18.7 µM | 0.378 µM | 3.57 µM | 0.393 µM | 12.5 µM | 1.35 µM | 10.5 µM | 0.739 µM | 32 µM | 1.32 µM | 26.8 µM | 1.33 µM | 25.1 µM | 0.482 µM | 8.82 µM
6 | COC(=O)/C=C/c1cn(C(C)=O)c2ccc(Br)cc12 | 17.2 µM | 83.6 µM | 26.9 µM | > 100 µM | 34.6 µM | > 100 µM | 20.9 µM | > 93.4 µM | 1.44 µM | > 100 µM | 38.5 µM | > 100 µM | 37.2 µM | > 100 µM | 15.3 µM | > 100 µM
7 | COc1ccc(-c2nc(N3CCN(C(=O)C4CCCCC4)CC3)c3c4c(sc3n2)CCCC4)cc1 | 57.5 µM | > 100 µM | 21.3 µM | 53.4 µM | > 100 µM | > 100 µM | 41 µM | > 100 µM | > 100 µM | > 100 µM | 46.4 µM | > 100 µM | 25.7 µM | > 100 µM | 70.5 µM | > 100 µM
8 | S=c1nc(Cl)cc2[nH]c(Cl)cn12 |  | > 100 µM |  | > 100 µM |  | > 100 µM |  | > 100 µM |  | 6.04 µM |  | 57.4 µM |  | > 100 µM |  | 
9 | O=C(NCc1ccncc1)C12CC3CC(C1)CC(c1ccc(Cl)cc1)(C3)C2 | 10.6 µM | 26.4 µM | 10.7 µM | 23.6 µM | 14.8 µM | 28.6 µM | 12 µM | 31.1 µM | 17.7 µM | 45 µM |  |  | 13.5 µM | 27.8 µM | 5.58 µM | 27.1 µM
10 | CCCCN(CCCC)CCCn1c(=O)c2c3ccccc3n(C)c2n2nnc(-c3ccccc3)c12 |  |  | 14.1 µM | 43 µM | 41.2 µM | > 100 µM | 57 µM | > 100 µM | 4.22 µM | 92 µM | 39.7 µM | > 100 µM | > 100 µM | > 100 µM | 2.54 µM | 41.7 µM
11 | C=C(CN1CCN(c2cccc(C(F)(F)F)n2)CC1)c1ccc(C(=S)Nc2ccccc2N)cc1 | 4.4 µM | > 100 µM | 3.74 µM | > 100 µM | 2.99 µM | 18.8 µM | 4.91 µM | > 100 µM |  |  | 5.33 µM | > 100 µM | 4.12 µM | > 100 µM | 2.29 µM | 5.66 µM
12 | CCCCCCCCCCCCOC1C(C(CC(=O)N2CCN(c3cccc(C(F)(F)F)c3)CC2)NS(=O)(=O)c2cc(Cl)cc(Cl)c2)OC2OC(C)(C)OC21 (configuration not stated) | > 100 µM | > 100 µM | > 100 µM | > 100 µM | > 100 µM | > 100 µM | > 100 µM | > 100 µM |  |  | > 100 µM | > 100 µM | > 100 µM | > 100 µM | > 100 µM | > 100 µM
13 | O=C(NCc1ccco1)c1ccc(NC2=C(Cl)C(=O)N(Cc3ccccc3)C2=O)cc1 | 17.9 µM | 36.5 µM | 40.1 µM | > 100 µM | 26.7 µM | > 100 µM | 17.2 µM | 60.8 µM |  |  | 42.5 µM | > 100 µM | 21.3 µM | 45.6 µM | 17.4 µM | 33.8 µM
14 | CN(C)CCOC(c1ccccc1)c1ccccc1 | 33.7 µM | 48.4 µM |  |  | 26.2 µM | 46 µM and > 100 µM | 39.7 µM | 56.4 µM and > 100 µM |  | > 100 µM | 14.8 µM | 22.7 µM and > 100 µM |  |  |  | > 100 µM
15 | O=C1OC(c2ccccc2)(c2cc(Br)c(O)c(Br)c2)c2ccccc21 (configuration not stated) |  |  | 18.6 µM | 36.4 µM | 19.6 µM | 43.9 µM | 26.2 µM | 84.4 µM | 38.3 µM | > 100 µM | 29.3 µM | > 100 µM | 29.7 µM | > 100 µM | 22.8 µM | 67.8 µM
16 | CN(C)CCCNC(=O)c1cncnc1Nc1ccc(OCc2cccc(F)c2)c(Cl)c1 | 1.59 µM | 3.06 µM | 1.51 µM | 2.87 µM | 1.71 µM | 3.13 µM | 4.27 µM | 19.6 µM | 1.82 µM | 3.94 µM |  |  | 1.72 µM | 3.11 µM | 1.67 µM | 3.52 µM
17 | COc1cc(OC)c(NC(=O)c2cc3ccccc3cc2O)cc1Cl | 4.33 µM | 66 µM | 3.82 µM | 8.51 µM | 2.43 µM | 5.82 µM | 3.32 µM | 17.7 µM |  |  | 2.88 µM | 8.45 µM | 4.82 µM | > 100 µM | 1.91 µM | 7.99 µM
